According to ChEMBL document CHEMBL6121005 (Eur J Med Chem, 2025):
Activity calls are given as the source filed them. The rule behind the calls is not given here.

Legend:
Cholinesterase [1] = target: T1, Cholinesterase (Homo sapiens, UniProt P06276); experiment: Inhibition of human serum BuChE using butyrylthiocholine iodide as substrate at 10 uM incubated for 10 mins followed by substrate addition by DTNB reagent based Ellman's method relative to control
Acetylcholinesterase = Acetylcholinesterase (Homo sapiens, UniProt P22303); experiment: Inhibition of human erythrocytes AChE measured after 10 mins by Ellman's method
Cholinesterase [2] = target: T1, Cholinesterase; experiment: Inhibition of human serum BuChE using butyrylthiocholine iodide as substrate incubated for 10 mins followed by substrate addition by DTNB reagent based Ellman's method
PC-12 [3] = experiment: (§1) Neuroprotective activity against H2O2-induced rat PC12 cells assessed as protection against H2O2-induced apoptosis by measuring late apoptotic cells at 50 uM pretreated for 2 hrs followed by H2O2 addition and measured after 24 hrs by Annexin V-FITC/PI staining based flow cytometry analysis (reference value: 7.26 %); type: functional; details: time 26 hrs
PC-12 [4] = experiment: as §1, with “necrotic” for “late apoptotic”, “0.99” for “7.26”; type: functional; details: time 26 hrs
PC-12 [5] = experiment: as §1, with “viable” for “late apoptotic”, “90.8” for “7.26”; type: functional; details: time 26 hrs
[6] = Inhibition of H2O2-induced ROS release in rat PC12 cells assessed as mean fluorescence intensity at 50 uM preincubated for 2 hrs followed by H2O2 addition and measured after 24 hrs by DCFH-DA based flow cytometry analysis (reference value: 23904); type: functional, PC-12; details: time 26 hrs
PC-12 [7] = experiment: as §1, with “early” for “late”, “0.88” for “7.26”; type: functional; details: time 26 hrs
PC-12 [8] = experiment: Cytoprotective against rat PC12 cells assessed as cell viability at 50 uM preincubated for 24 hrs and measured after 4 hrs by CCK-8 assay; type: functional, cell-based
[9] = Cytotoxicity against rat PC12 cells assessed as cell viability at 50 uM preincubated for 24 hrs and measured after 4 hrs by CCK-8 assay; type: toxicity, cell-based, PC-12; details: time 28 hrs, read-out: Activity
Mus musculus [10] = experiment: Antialzheimer activity against scopolamine-induced ICR mouse cognitive deficit model assessed as latency time at 2.5 to 10 mg/kg, po administrated daily and measured on initial day of training by Morris water maze test; type: functional; details: dose 2.5-10 mg/kg
Mus musculus [11] = experiment: Antialzheimer activity against scopolamine-induced ICR mouse cognitive deficit model assessed as decrease in movement distance at 2.5 to 10 mg/kg, po administrated daily and measured on last day of training by Morris water maze test; type: functional, organism-based; details: dose 2.5-10 mg/kg
Mus musculus [12] = experiment: Antialzheimer activity against amyloid beta (1 to 42)-induced ICR mouse memory impairment model assessed as mean escape latency at 2.5 to 10 mg/kg, po administered daily and measured after 15 to 19 days by Morris water maze test; type: functional, organism-based; details: dose 2.5-10 mg/kg, time 15-19 day
Mus musculus [13] = experiment: Antialzheimer activity against amyloid beta (1 to 42)-induced ICR mouse memory impairment model assessed as decrease in movement distance at 2.5 to 10 mg/kg, po administered daily and measured after 15 to 19 days by Morris water maze test; type: functional, organism-based; details: dose 2.5-10 mg/kg, time 15-19 day
Mus musculus [14] = experiment: Antialzheimer activity in amyloid beta (1 to 42 residues) induced ICR mouse assessed as increase in distance travelled within target quadrant at 5 mg/kg, po administered daily and measured after 15 to 19 days by Morris water maze test; type: functional, organism-based; details: time 15-19 day
Mus musculus [15] = experiment: Antialzheimer activity in amyloid beta (1 to 42 residues) induced ICR mouse assessed as increase in time spent within target quadrant at 5 mg/kg, po administered daily and measured after 15 to 19 days by Morris water maze test; type: functional, organism-based; details: time 15-19 day
Mus musculus [16] = experiment: Antialzheimer activity in scopolamine-induced ICR mouse assessed as increase in trajectory within target quadrant at 2.5 to 10 mg/kg, po administered daily and measured after 16 to 20 days by Morris water maze test; type: functional, organism-based; details: dose 2.5-10 mg/kg, time 16-20 day
Mus musculus [17] = experiment: Antialzheimer activity against scopolamine-induced ICR mouse cognitive deficit model assessed as decrease in latency time at 2.5 to 10 mg/kg, po administrated daily and measured on last day of training by Morris water maze test; type: functional, organism-based; details: dose 2.5-10 mg/kg
Mus musculus [18] = experiment: Antialzheimer activity in amyloid beta (1 to 42 residues) induced ICR mouse memory impairment model assessed as increase in trajectory after platform removal at 2.5 to 10 mg/kg, po administered daily and measured after 15 to 19 days by Morris water maze test; type: functional, organism-based; details: dose 2.5-10 mg/kg, time 15-19 day
Mus musculus [19] = experiment: Antialzheimer activity against amyloid beta (1 to 42)-induced ICR mouse cognitive deficit model assessed as increase in alternation performance at 5 mg/kg, po administered daily and measured on day 12 by Y-maze test relative to control; type: functional; details: time 12 day
PC-12 [20] = experiment: Antioxidant activity against H2O2-induced toxicity in rat PC12 cells at 12.5 uM preincubated for 2 hrs and measured after 24 hrs by CCK-8 assay; type: functional, cell-based; details: time 26.0 hrs

T1 sequence (P06276 whole entry): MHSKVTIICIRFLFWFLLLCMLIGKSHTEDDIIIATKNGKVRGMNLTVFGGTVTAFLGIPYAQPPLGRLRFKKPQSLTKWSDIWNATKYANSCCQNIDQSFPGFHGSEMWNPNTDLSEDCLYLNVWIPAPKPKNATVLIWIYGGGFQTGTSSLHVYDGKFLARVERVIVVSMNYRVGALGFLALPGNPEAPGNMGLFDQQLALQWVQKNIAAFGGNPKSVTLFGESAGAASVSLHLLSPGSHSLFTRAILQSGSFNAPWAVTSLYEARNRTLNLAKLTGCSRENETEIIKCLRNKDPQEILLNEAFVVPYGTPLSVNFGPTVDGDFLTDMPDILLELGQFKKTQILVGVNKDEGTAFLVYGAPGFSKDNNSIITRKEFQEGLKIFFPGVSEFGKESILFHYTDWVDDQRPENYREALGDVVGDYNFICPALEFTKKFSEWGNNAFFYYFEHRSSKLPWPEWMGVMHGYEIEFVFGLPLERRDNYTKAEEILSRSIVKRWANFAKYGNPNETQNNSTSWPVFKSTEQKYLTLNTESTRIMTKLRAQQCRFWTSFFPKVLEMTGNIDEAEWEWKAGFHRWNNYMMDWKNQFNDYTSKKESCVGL
Acetylcholinesterase, sequence (P22303 whole entry): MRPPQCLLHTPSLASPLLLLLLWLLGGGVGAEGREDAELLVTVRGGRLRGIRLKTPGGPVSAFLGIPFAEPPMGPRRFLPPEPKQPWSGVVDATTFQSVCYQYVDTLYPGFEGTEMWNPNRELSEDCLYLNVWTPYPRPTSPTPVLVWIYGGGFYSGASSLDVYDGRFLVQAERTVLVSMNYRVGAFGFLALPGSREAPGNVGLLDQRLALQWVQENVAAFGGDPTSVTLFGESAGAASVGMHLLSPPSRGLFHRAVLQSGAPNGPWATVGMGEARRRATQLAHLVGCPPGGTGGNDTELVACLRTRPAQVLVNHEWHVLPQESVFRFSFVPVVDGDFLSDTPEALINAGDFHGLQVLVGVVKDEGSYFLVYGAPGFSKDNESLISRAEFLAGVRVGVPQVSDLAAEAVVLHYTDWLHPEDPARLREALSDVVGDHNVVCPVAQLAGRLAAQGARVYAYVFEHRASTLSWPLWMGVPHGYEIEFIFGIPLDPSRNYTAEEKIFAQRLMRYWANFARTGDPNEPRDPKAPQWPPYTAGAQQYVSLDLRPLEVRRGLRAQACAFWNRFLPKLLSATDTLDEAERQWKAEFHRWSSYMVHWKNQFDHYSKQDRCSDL

COc1ccc2c3c1O[C@H]1C[C@@H](OC(=O)NC4CCN(Cc5ccc(F)cc5F)CC4)C=C[C@@]31CCN(C)C2
inhibition (Cholinesterase [1]): 19.9% | IC50 (Acetylcholinesterase): 1.2 µM

COc1cc(CN2CCC(NC(=O)O[C@H]3C=C[C@@]45CCN(C)Cc6ccc(OC)c(c64)O[C@H]5C3)CC2)cc(OC)c1
inhibition (Cholinesterase [1]): 12.9%

COc1ccc2c3c1O[C@H]1C[C@@H](OC(=O)NC4CCN(Cc5ccccc5F)CC4)C=C[C@@]31CCN(C)C2
inhibition (Cholinesterase [1]): 21.6% | IC50 (Acetylcholinesterase): 0.406 µM

COc1ccc2c3c1O[C@H]1C[C@@H](OCc4ccc(Cc5ccc(F)cc5)cn4)C=C[C@@]31CCN(C)C2
inhibition (Cholinesterase [1]): 90.3% | IC50 (Cholinesterase [2]): 1.01 µM

COc1ccc2c3c1O[C@H]1C[C@@H](OC(=O)NCc4ccc(C#N)cc4)C=C[C@@]31CCN(C)C2
inhibition (Cholinesterase [1]): 2.57%

Oc1ccc(/C=C/c2cc(O)cc(O)c2)cc1 [RESVERATROL]
Activity (PC-12 [3]): 6.38% | Activity (PC-12 [4]): 1.79% | Activity (PC-12 [5]): 88.3% | Flu intensity [6]: 29540 | Activity (PC-12 [7]): 3.58%

COc1cccc(Cc2ccc(CO[C@H]3C=C[C@@]45CCN(C)Cc6ccc(OC)c(c64)O[C@H]5C3)nc2)c1
inhibition (Cholinesterase [1]): 88.2% | IC50 (Cholinesterase [2]): 1.07 µM

COc1ccc2c3c1O[C@H]1C[C@@H](OC(=O)NCc4ccc(F)cc4F)C=C[C@@]31CCN(C)C2
inhibition (Cholinesterase [1]): 13.5%

COc1ccc2c3c1O[C@H]1C[C@@H](OC(=O)NCc4ccc5[nH]ccc5c4)C=C[C@@]31CCN(C)C2
inhibition (Cholinesterase [1]): 3.54%

COc1ccc2c3c1O[C@H]1C[C@@H](OC(=O)NC4CCN(Cc5ccc(C#N)cc5)CC4)C=C[C@@]31CCN(C)C2
inhibition (Cholinesterase [1]): 21.3%

COc1ccc2c3c1O[C@H]1C[C@@H](OC(=O)NC4CCN(Cc5cccc(F)c5)CC4)C=C[C@@]31CCN(C)C2
Activity (PC-12 [3]): 10.3% | Activity (PC-12 [8]): Active | inhibition (Cholinesterase [1]): 18.6% | Activity (PC-12 [4]): 1.27% | Activity (PC-12 [5]): 82.7% | viability at 4 h, 50 µM [9]: > 90% | Flu intensity [6]: 52051 | Activity (PC-12 [7]): 5.71% | IC50 (Acetylcholinesterase): 0.419 µM

COc1ccc2c3c1O[C@H]1C[C@@H](OC(=O)NCc4ccc(F)cc4)C=C[C@@]31CCN(C)C2
inhibition (Cholinesterase [1]): 12.7%

COc1ccc2c3c1O[C@H]1C[C@@H](OC(=O)NC4CCN(Cc5cccc(C(F)(F)F)c5)CC4)C=C[C@@]31CCN(C)C2
inhibition (Cholinesterase [1]): 25.1% | IC50 (Acetylcholinesterase): 0.601 µM

COc1ccc2c3c1O[C@H]1C[C@@H](OC(=O)NCc4ccccc4F)C=C[C@@]31CCN(C)C2
inhibition (Cholinesterase [1]): 18.4%

COc1ccc2c3c1O[C@H]1C[C@@H](OCc4ccc(Cc5cccc(Cl)c5)cn4)C=C[C@@]31CCN(C)C2
Activity (PC-12 [3]): 15% | Activity (PC-12 [8]): Active | inhibition (Cholinesterase [1]): 90.5% | Activity (PC-12 [4]): 1.45% | Activity (PC-12 [5]): 72.4% | IC50 (Cholinesterase [2]): 0.913 µM | viability at 4 h, 50 µM [9]: > 90% | Flu intensity [6]: 88808 | Activity (PC-12 [7]): 10.9% | IC50 (Acetylcholinesterase): 3.39 µM

COc1ccc2c3c1O[C@H]1C[C@@H](OC(=O)NCc4ccc(OC(F)(F)F)cc4)C=C[C@@]31CCN(C)C2
inhibition (Cholinesterase [1]): 18.2%

COc1ccc2c3c1O[C@H]1C[C@@H](O)C=C[C@@]31CCN(C)C2 [GALANTAMINE]
Time (Mus musculus [10]): 60 s | Activity (PC-12 [3]): 17.3% | Activity (PC-12 [8]): Active | Activity (Mus musculus [11]): Active | Activity (Mus musculus [12]): Active | Activity (Mus musculus [13]): Active | Activity (Mus musculus [14]): Active | Activity (Mus musculus [15]): Active | Activity (Mus musculus [16]): Active | Activity (Mus musculus [17]): Active | Activity (PC-12 [4]): 1.89% | Activity (Mus musculus [18]): Active | Activity (PC-12 [5]): 70.8% | Activity (Mus musculus [19]): 72.92% | Flu intensity [6]: 89205 | Activity (PC-12 [7]): 11.5%

COc1ccc2c3c1O[C@H]1C[C@@H](OC(=O)NC4CCN(Cc5ccc(Cl)cc5)CC4)C=C[C@@]31CCN(C)C2
inhibition (Cholinesterase [1]): 30.2%

COc1ccc2c3c1O[C@H]1C[C@@H](OCc4ccc(Cc5ccc(C)cc5)cn4)C=C[C@@]31CCN(C)C2
inhibition (Cholinesterase [1]): 87.4% | IC50 (Cholinesterase [2]): 1.35 µM

COc1ccc(Cc2ccc(CO[C@H]3C=C[C@@]45CCN(C)Cc6ccc(OC)c(c64)O[C@H]5C3)nc2)cc1
inhibition (Cholinesterase [1]): 87% | IC50 (Cholinesterase [2]): 1.31 µM

COc1ccc2c3c1O[C@H]1C[C@@H](OC(=O)NC4CCN(Cc5ccccc5)CC4)C=C[C@@]31CCN(C)C2
Activity (PC-12 [3]): 10.7% | Activity (PC-12 [8]): Active | Activity (PC-12 [20]): Dose-dependent-effect | inhibition (Cholinesterase [1]): 29.2% | Activity (PC-12 [4]): 1.35% | Activity (PC-12 [5]): 79.3% | viability at 4 h, 50 µM [9]: > 90% | Flu intensity [6]: 76256 | Activity (PC-12 [7]): 8.66% | IC50 (Acetylcholinesterase): 0.37 µM

COc1ccc2c3c1O[C@H]1C[C@@H](OC(=O)NCc4cc(F)cc(F)c4)C=C[C@@]31CCN(C)C2
inhibition (Cholinesterase [1]): 4.56%

COc1ccc2c3c1O[C@H]1C[C@@H](OCc4ccc(Cc5cccc(F)c5)cn4)C=C[C@@]31CCN(C)C2
inhibition (Cholinesterase [1]): 92.3% | IC50 (Cholinesterase [2]): 0.743 µM

COc1ccc2c3c1O[C@H]1C[C@@H](OC(=O)NCc4ccc([N+](=O)[O-])cc4)C=C[C@@]31CCN(C)C2
inhibition (Cholinesterase [1]): 6.23%

COc1ccc2c3c1O[C@H]1C[C@@H](OCc4ccc(Cc5ccc(Cl)cc5)cn4)C=C[C@@]31CCN(C)C2
inhibition (Cholinesterase [1]): 88.7% | IC50 (Cholinesterase [2]): 1.03 µM

COc1ccc2c3c1O[C@H]1C[C@@H](OC(=O)NC4CCN(Cc5ccc(OC(F)(F)F)cc5)CC4)C=C[C@@]31CCN(C)C2
inhibition (Cholinesterase [1]): 26% | IC50 (Acetylcholinesterase): 0.451 µM

COc1ccc2c3c1O[C@H]1C[C@@H](OC(=O)NCc4ccccc4)C=C[C@@]31CCN(C)C2
inhibition (Cholinesterase [1]): 10.4%

COc1ccc2c3c1O[C@H]1C[C@@H](OC(=O)NCc4ccc5ccccc5c4)C=C[C@@]31CCN(C)C2
inhibition (Cholinesterase [1]): 6.44%

COc1ccc2c3c1O[C@H]1C[C@@H](OCc4ccc(Cc5ccccc5)cn4)C=C[C@@]31CCN(C)C2
inhibition (Cholinesterase [1]): 91.2% | IC50 (Cholinesterase [2]): 1.5 µM

COc1ccc2c3c1O[C@H]1C[C@@H](OC(=O)NCc4ccc(C)cc4)C=C[C@@]31CCN(C)C2
inhibition (Cholinesterase [1]): 4.99%

COc1ccc2c3c1O[C@H]1C[C@@H](OC(=O)NC4CCN(Cc5ccc([N+](=O)[O-])cc5)CC4)C=C[C@@]31CCN(C)C2
inhibition (Cholinesterase [1]): 24.6%

COc1ccc(CNC(=O)O[C@H]2C=C[C@@]34CCN(C)Cc5ccc(OC)c(c53)O[C@H]4C2)cc1
inhibition (Cholinesterase [1]): 2.97%

COc1ccc2c3c1O[C@H]1C[C@@H](OC(=O)NCc4ccc(C(F)(F)F)cc4)C=C[C@@]31CCN(C)C2
inhibition (Cholinesterase [1]): 14.9%

COc1ccc2c3c1O[C@H]1C[C@@H](OC(=O)NC4CCN(Cc5ccc(C)cc5)CC4)C=C[C@@]31CCN(C)C2
inhibition (Cholinesterase [1]): 28.7%

COc1ccc2c3c1O[C@H]1C[C@@H](OC(=O)NCc4cccc(F)c4)C=C[C@@]31CCN(C)C2
inhibition (Cholinesterase [1]): 14.6%

COc1ccccc1Cc1ccc(CO[C@H]2C=C[C@@]34CCN(C)Cc5ccc(OC)c(c53)O[C@H]4C2)nc1
inhibition (Cholinesterase [1]): 84.4% | IC50 (Cholinesterase [2]): 2.66 µM | IC50 (Acetylcholinesterase): 3.2 µM

COc1ccc2c3c1O[C@H]1C[C@@H](OC(=O)NC4CCN(Cc5ccc(F)cc5)CC4)C=C[C@@]31CCN(C)C2
inhibition (Cholinesterase [1]): 21% | IC50 (Acetylcholinesterase): 0.399 µM

COc1ccc2c3c1O[C@H]1C[C@@H](OC(=O)NCc4ccccc4C)C=C[C@@]31CCN(C)C2
inhibition (Cholinesterase [1]): 9.54%
